Reference: ChEMBL document CHEMBL5291721, “A preclinical secondary pharmacology resource illuminates target-adverse drug reaction associations of marketed drugs” (Nat Commun, 2023)

Legend:
[1] = target: T1, Retinoic acid receptor alpha (Homo sapiens, UniProt P10276); assay type: functional, cell-based
T1 sequence (P10276 whole entry): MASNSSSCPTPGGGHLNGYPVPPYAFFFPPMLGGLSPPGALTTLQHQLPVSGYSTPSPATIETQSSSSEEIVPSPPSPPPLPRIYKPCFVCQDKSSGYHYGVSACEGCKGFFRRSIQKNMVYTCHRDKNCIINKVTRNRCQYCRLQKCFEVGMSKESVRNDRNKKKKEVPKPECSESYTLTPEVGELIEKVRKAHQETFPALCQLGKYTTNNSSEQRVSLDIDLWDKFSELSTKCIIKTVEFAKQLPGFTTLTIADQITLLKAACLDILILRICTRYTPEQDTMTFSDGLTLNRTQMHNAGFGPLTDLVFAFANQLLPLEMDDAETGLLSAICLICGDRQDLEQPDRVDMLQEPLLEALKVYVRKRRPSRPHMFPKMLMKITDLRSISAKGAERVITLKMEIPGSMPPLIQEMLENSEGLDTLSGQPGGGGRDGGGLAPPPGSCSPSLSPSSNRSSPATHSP

Bile acid receptor = target: T2, Bile acid receptor (Homo sapiens, UniProt Q96RI1); assay type: functional
T2 sequence (Q96RI1 whole entry): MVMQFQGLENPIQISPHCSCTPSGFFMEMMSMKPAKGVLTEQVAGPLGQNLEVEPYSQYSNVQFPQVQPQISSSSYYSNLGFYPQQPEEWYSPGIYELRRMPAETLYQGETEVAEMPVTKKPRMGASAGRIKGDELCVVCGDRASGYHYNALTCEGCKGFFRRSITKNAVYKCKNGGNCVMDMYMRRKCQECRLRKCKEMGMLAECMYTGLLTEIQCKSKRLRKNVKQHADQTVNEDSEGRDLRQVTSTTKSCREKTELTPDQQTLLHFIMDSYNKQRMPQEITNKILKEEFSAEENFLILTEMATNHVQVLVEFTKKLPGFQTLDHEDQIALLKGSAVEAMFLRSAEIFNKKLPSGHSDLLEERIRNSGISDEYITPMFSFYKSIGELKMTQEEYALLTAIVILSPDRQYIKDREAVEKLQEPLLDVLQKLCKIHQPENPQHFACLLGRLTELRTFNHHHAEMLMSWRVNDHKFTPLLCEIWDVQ

[2] = target: T3, Oxysterols receptor LXR-alpha (Homo sapiens, UniProt Q13133); assay type: functional
T3 sequence (Q13133 whole entry): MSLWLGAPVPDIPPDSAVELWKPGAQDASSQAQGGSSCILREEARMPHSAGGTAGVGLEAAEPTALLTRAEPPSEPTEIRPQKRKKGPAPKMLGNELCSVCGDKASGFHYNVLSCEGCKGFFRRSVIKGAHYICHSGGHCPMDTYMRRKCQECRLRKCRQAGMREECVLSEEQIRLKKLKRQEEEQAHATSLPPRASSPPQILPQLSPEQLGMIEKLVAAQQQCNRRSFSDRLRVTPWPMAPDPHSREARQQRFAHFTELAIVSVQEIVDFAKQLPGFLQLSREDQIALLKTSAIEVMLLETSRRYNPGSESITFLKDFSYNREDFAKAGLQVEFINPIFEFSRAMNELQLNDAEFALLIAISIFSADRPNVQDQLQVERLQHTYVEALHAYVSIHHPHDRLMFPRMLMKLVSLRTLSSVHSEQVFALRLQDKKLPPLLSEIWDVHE

[3] = target: T4, Retinoic acid receptor beta (Homo sapiens, UniProt P10826); assay type: functional, cell-based
T4 sequence (P10826 whole entry): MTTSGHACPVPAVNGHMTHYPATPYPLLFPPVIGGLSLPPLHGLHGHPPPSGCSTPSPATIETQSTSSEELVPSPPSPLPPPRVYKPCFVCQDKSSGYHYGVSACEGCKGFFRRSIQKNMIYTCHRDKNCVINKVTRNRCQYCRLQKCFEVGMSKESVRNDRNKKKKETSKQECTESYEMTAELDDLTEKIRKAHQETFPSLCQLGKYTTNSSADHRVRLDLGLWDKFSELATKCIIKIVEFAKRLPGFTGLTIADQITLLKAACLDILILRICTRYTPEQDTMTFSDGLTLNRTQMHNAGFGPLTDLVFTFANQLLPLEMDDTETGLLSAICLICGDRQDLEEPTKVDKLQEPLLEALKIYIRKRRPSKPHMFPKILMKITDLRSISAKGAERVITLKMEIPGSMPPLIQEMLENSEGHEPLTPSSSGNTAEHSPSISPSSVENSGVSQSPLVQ

Measured: AC50
Further: assay procedure not described here.

COc1ccc2c(c1)C(=O)N(CCc1ccc(S(=O)(=O)NC(=O)NC3CCCCC3)cc1)C(=O)C2(C)C [GLIQUIDONE]
> 30 µM: all assays above
